{"source": "patent US11191742B2", "about": "“Methods of treating neurodegenerative disorders in a particular population” (ALZHEON, INC., priority 2015, dated 2021)", "type_in_all_cases": "in vivo, human", "key": {"[1]": {"test": "Phase I single dose study, plasma tramiprosate pharmacokinetics", "conditions": "single dose of oral ALZ-801", "excerpt": "(§1) To advance the clinical development of ALZ-801 into Phase 3, we have completed single dose and 14-day multiple ascending dose Phase 1 bridging studies in healthy elderly volunteers to evaluate safety, tolerability and pharmacokinetics. […] The longer half-life observed in the multiple ascending dose studies was obtained after 14 days of BID dosing and was due to the fact that there were more extended blood sampling time points taken in that study as compared to the single dose study."}, "[2]": {"test": "Phase I 14-day multiple ascending dose study, plasma tramiprosate pharmacokinetics", "conditions": "over 14 days", "excerpt": "as §1"}, "[3]": {"test": "ALZ-801 immediate release tablet, pharmacokinetics and GI tolerability fed vs fasted"}}, "data": [{"smiles": "CC(C)[C@H](N)C(=O)NCCCS(=O)(=O)O", "note": "[ALZ-801, valyl-3-amino-1-propanesulfonic acid]", "values": [{"measurement": "Plasma exposure of tramiprosate compared with oral tramiprosate", "setting": "[1]", "value": "equivalent plasma exposure of tramiprosate"}, {"measurement": "Dose proportionality and accumulation of plasma tramiprosate exposure", "setting": "[2]", "value": "excellent dose proportionality without accumulation or decrease in plasma exposure"}, {"measurement": "Incidence of GI symptoms with food compared to the fasted state", "setting": "[3]; ALZ-801 immediate release tablet", "value": "markedly reduced"}, {"measurement": "Difference in pharmacokinetic parameters between fed and fasted subjects", "setting": "[3]; ALZ-801 tablet, single dose of 205 mg", "value": "no significant difference"}]}]}
